From patent US20240247031A1, “COMPOSITION FOR TREATING CANCER CONTAINING TELOMERASE-TARGETING GNRH ANTAGONIST-DERIVED PEPTIDE HS1002” (Research & Business Foundation Sungkyunkwan University, priority 2023, published 2024)
In brackets after ≈: the same amount, converted by molar mass. Where a SMILES comes first, the peptide text is derived from it. [ ]: non-standard residue; d: D form. pGlu = O=C1CC[C@@H](C(=O)O)N1

T1: gonadotropin-releasing hormone (GnRH) receptor (UniProt P30968 1-328, limits assumed)
T1 sequence (looked up): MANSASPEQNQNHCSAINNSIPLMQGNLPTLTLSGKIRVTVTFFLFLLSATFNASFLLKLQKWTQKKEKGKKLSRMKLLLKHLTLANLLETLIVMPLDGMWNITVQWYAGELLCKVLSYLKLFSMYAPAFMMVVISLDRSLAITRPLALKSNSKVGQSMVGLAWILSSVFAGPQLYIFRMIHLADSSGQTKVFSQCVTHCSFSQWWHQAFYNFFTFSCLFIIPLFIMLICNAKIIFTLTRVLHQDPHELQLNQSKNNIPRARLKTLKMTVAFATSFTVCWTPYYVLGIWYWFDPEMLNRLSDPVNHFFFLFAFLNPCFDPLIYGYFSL

B1: peptide HS1002 (peptide)
peptide: [pGlu]HWSYRLRFIP-NHEt
SMILES: CCNC(=O)[C@@H]1CCCN1C(=O)[C@@H](NC(=O)[C@H](Cc1ccccc1)NC(=O)[C@H](CCCNC(=N)N)NC(=O)[C@H](CC(C)C)NC(=O)[C@H](CCCNC(=N)N)NC(=O)[C@H](Cc1ccc(O)cc1)NC(=O)[C@H](CO)NC(=O)[C@H](Cc1c[nH]c2ccccc12)NC(=O)[C@H](Cc1c[nH]cn1)NC(=O)[C@@H]1CCC(=O)N1)[C@@H](C)CC

Assays:
MCF-7 = assay: cells; format: cell-based, human; conditions: for Cytotoxicity (IC50) MCF-7: human, 48 h
Protocol: (§1) To evaluate anticancer activities of the produced peptides on various types of cancer cells, MTT analysis was performed. Human prostate cancer cell lines (LNCaP, PC3, and DU145), human breast cancer cell lines (MDA-MB-231 and MCF-7), lung cancer cell line (A549), and ovarian cancer cell line (SKOV3) were cultured in RPMI media supplemented with 1% penicillin/streptomycin and 1% fetal bovine serum (all from Life Technologies, Grand Island, NY). The cells were seeded in 96-well plates containing 100 μL of growth media for 24 h. The media were removed, and then 100 μL of the peptide (solvent DPBS) at each concentration was added to each well and incubated at 37° C. for 48 h. After incubation for 48 h, 100 μL of MTT reagent was added to each well. The cells were incubated at 37° C. for 4 h, and then the supernatant was removed. Formazan crystals were dissolved in 100 μL of DMSO with gentle stirring at 37° C. for 10 min. The absorbance per well was measured at 540 nm using a VERSA max microplate reader (Molecular Devices Corp.).

LNCaP = assay: cells; format: cell-based, human; conditions: 48 h; for Cytotoxicity (IC50) LNCaP: human
Protocol: as §1

DU145 = assay: MTT cytotoxicity on various cancer cells (Table 1); format: cell-based, human; conditions: for Cytotoxicity (IC50) DU145: human, 48 h
Protocol: as §1

A549 = assay: MTT cytotoxicity on various cancer cells (Table 1); format: cell-based, human; conditions: for Cytotoxicity (IC50) A549: human, 48 h
Protocol: as §1

SKOV3 = assay: MTT cytotoxicity on various cancer cells (Table 1); format: cell-based, human; conditions: for Cytotoxicity (IC50) SKOV3: human, 48 h
Protocol: as §1

PC3 = assay: MTT cytotoxicity on various cancer cells (Table 1); format: cell-based, human; conditions: for Cytotoxicity (IC50) PC3: human, 48 h
Protocol: as §1

[1] = biological target: T1, gonadotropin-releasing hormone (GnRH) …; assay: cell-based or functional assay

Row | Molecule | Cytotoxicity (IC50) MCF-7 (MCF-7) [µg/mL] | Cytotoxicity (IC50) LNCaP (LNCaP) [µg/mL] | Cytotoxicity (IC50) DU145 (DU145) [µg/mL] | Cytotoxicity (IC50) A549 (A549) [µg/mL] | Cytotoxicity (IC50) SKOV3 (SKOV3) [µg/mL] | Cytotoxicity (IC50) PC3 (PC3) [µg/mL] | IC50 (MCF-7; Homo sapiens, MCF7, 48 h, read-out: Cytotoxicity (IC50) MCF-7) [µg/mL] | IC50 (LNCaP; Homo sapiens, LNCaP, read-out: Cytotoxicity (IC50) LNCaP) [µg/mL] | IC50 (DU145; Homo sapiens, DU-145, 48 h, read-out: Cytotoxicity (IC50) DU145) [µg/mL] | IC50 (A549; Homo sapiens, A549, 48 h, read-out: Cytotoxicity (IC50) A549) [µg/mL] | IC50 (SKOV3; Homo sapiens, SK-OV-3, 48 h, read-out: Cytotoxicity (IC50) SKOV3) [µg/mL] | IC50 (PC3; Homo sapiens, PC-3, 48 h, read-out: Cytotoxicity (IC50) PC3) [µg/mL] | CRE-luciferase activity in HEK293-GnRHR cells [1] [fold]
1 | CC(C)C[C@H](NC(=O)[C@H](C)NC(=O)[C@@H]1CCCN1C(=O)[C@H](CCCNC(=N)N)NC(=O)[C@H](C)NC(=O)[C@@H](N)CCC(=O)O)C(=O)N[C@@H](CC(C)C)C(=O)N[C@@H](CO)C(=O)N[C@H](C(=O)N[C@@H](CCCNC(=N)N)C(=O)N[C@@H](CC(C)C)C(=O)N[C@@H](CCCNC(=N)N)C(=O)N1CCC[C@H]1C(=O)O)[C@@H](C)O [HS1001] (H-EARPALLSTRLRP-OH; N-terminus and C-terminus assumed) | 48.26 ± 1.23 | 6.55 ± 0.96 | 7.82 ± 0.37 | 4.18 ± 0.15 | 6.14 ± 0.79 | 8.05 ± 1.58 | – | – | – | – | – | – | –
2 | CCNC(=O)[C@@H]1CCCN1C(=O)[C@@H](NC(=O)[C@H](Cc1ccccc1)NC(=O)[C@H](CCCNC(=N)N)NC(=O)[C@@H]1CCCN1C(=O)[C@H](C)NC(=O)[C@H](Cc1ccc(O)cc1)NC(=O)[C@H](CO)NC(=O)[C@H](Cc1c[nH]c2ccccc12)NC(=O)[C@H](Cc1c[nH]cn1)NC(=O)[C@@H]1CCC(=O)N1)[C@@H](C)CC [HS1003] ([pGlu]HWSYAPRFIP-NHEt; C-terminus assumed) | 47.28 ± 2.05 | 10.9 ± 0.48 | 12.37 ± 0.31 | 9.48 ± 0.08 | 5.79 ± 0.38 | 24.05 ± 1.13 | – | – | – | – | – | – | –
3 | CCNC(=O)[C@@H]1CCCN1C(=O)[C@@H](NC(=O)[C@H](Cc1ccccc1)NC(=O)[C@H](C)NC(=O)[C@H](CC(C)C)NC(=O)[C@H](CCCNC(=N)N)NC(=O)[C@H](Cc1ccc(O)cc1)NC(=O)[C@H](CO)NC(=O)[C@H](Cc1c[nH]c2ccccc12)NC(=O)[C@H](Cc1c[nH]cn1)NC(=O)[C@@H]1CCC(=O)N1)[C@@H](C)CC [HS1004] ([pGlu]HWSYRLAFIP-NHEt; C-terminus assumed) | 37.47 ± 1.58 | 9.97 ± 0.85 | 17.54 ± 0.74 | – | 5.19 ± 0.82 | 16.49 ± 0.74 | – | – | – | – | – | – | –
4 | CC(C)C[C@H](NC(=O)[C@H](C)NC(=O)[C@@H]1CCCN1C(=O)[C@H](CCCNC(=N)N)NC(=O)[C@H](C)NC(=O)[C@@H](N)CCC(=O)O)C(=O)N[C@@H](CC(C)C)C(=O)N[C@@H](CO)C(=O)N[C@H](C(=O)N[C@@H](CCCNC(=N)N)C(=O)N[C@@H](Cc1ccccc1)C(=O)N[C@@H](CCCNC(=N)N)C(=O)N1CCC[C@H]1C(=O)N[C@@H](CCCCN)C(=O)O)[C@@H](C)O [HS1005] (H-EARPALLSTRFRPK-OH; N-terminus and C-terminus assumed) | 44.15 ± 2.63 | 11.23 ± 1.01 | 16.17 ± 1.28 | 14.75 ± 0.83 | 14.08 ± 1.04 | 13.31 ± 1.05 | – | – | – | – | – | – | –
5 | CC(C)C[C@H](NC(=O)CNC(=O)[C@@H](NC(=O)[C@H](CO)NC(=O)[C@H](CC(C)C)NC(=O)[C@H](CC(C)C)NC(=O)[C@H](C)NC(=O)[C@@H]1CCCN1C(=O)[C@H](CCCNC(=N)N)NC(=O)[C@H](C)NC(=O)[C@@H](N)CCC(=O)O)[C@@H](C)O)C(=O)N[C@@H](CCCNC(=N)N)C(=O)N1CCC[C@H]1C(=O)N[C@@H](CCCCN)C(=O)O [HS1006] (H-EARPALLSTGLRPK-OH; N-terminus and C-terminus assumed) | 55.24 ± 2.41 | 14.17 ± 0.47 | 19.46 ± 0.26 | 10.68 ± 0.25 | 13.91 ± 1.17 | 15.2 ± 1.12 | – | – | – | – | – | – | –
6 | CC(=O)O[C@H]1C(=O)[C@@]2(C)[C@H]([C@H](OC(=O)c3ccccc3)[C@]3(O)C[C@H](OC(=O)[C@H](O)[C@@H](NC(=O)c4ccccc4)c4ccccc4)C(C)=C1C3(C)C)[C@]1(OC(C)=O)CO[C@@H]1C[C@@H]2O [PTX, Paclitaxel, reference compound] | – | – | – | – | – | – | 9.27 ± 1.12 (≈ 10.9 µM) | 0.81 ± 0.09 (≈ 0.949 µM) | 0.73 ± 0.04 (≈ 0.855 µM) | 3.62 ± 0.04 (≈ 4.24 µM) | 5.41 ± 0.19 (≈ 6.34 µM) | 59.4 ± 3.21 (≈ 69.6 µM) | –
7 | B1 | – | – | – | – | – | – | – | – | – | – | – | – | 2
